# Experimental data published in publication PMC7913927, “Leishmanicidal Activity of Betulin Derivatives in Leishmania amazonensis; Effect on Plasma and Mitochondrial Membrane Potential, and Macrophage Nitric Oxide and Superoxide Production” (Microorganisms, 2021).
# Values joined by “and” are separate entries in the source; they are usually repeats but may differ in a detail not shown here. Identical values can stand only once. Like-named read-outs stand apart in the source and are kept apart here.
# System: VE98MR intracellular amastigotes in J774.1 macrophages
# Assay: Macrophage-amastigote model, patient isolate VE98MR
# Format: cell-based, Leishmania amazonensis
# Conditions: for Regresion (GraphPad 6) of %Control vs dose (50% inhibitory concentration) / Growth (%) Exp1 %Control / Growth (%) Exp1 A/100MØ / Growth (%) Exp1 A/MØ / Growth (%) Exp1 Infección / Growth (%) Exp2 %Control / Growth (%) Exp2 A/100MØ / Growth (%) Exp2 A/MØ / Growth (%) Exp2 Infección / Growth (%) Exp3 %Control / Growth (%) Exp3 A/100MØ / Growth (%) Exp3 A/MØ / Growth (%) Exp3 Infección / Average A/100MØ: VE98MR; for Regresion (GraphPad 6) of %Control vs dose (50% inhibitory concentration): unit from Dose head; for Average A/100MØ: average of Exp1-3
# Protocol: We used a previously described methodology, with some modifications. Macrophage monolayers, grown in RMPIc medium, for 3 days, were detached from the bottom of the culture chamber, by physical treatment (low temperature and light strokes). Obtained macrophages were seeded in flat-bottom 96-well culture plates, at a density of 2 × 10^5 cells mL^−1 (40,000 macrophages/well), in a final volume of 200 µL. Plates were incubated for 2 h, and the supernatant was discarded to remove non-adhered macrophages. Medium was replaced with stationary-phase promastigotes suspended in 200 µL of RPMIc (2 × 10^6 parasites mL^−1, 400,000 parasites/well), at a macrophage: parasite ratio 1:10 [40]. The plates were incubated for 4 h. Afterwards the medium was replaced with fresh RPMIc and increasing concentrations of compounds or drugs tested were applied, in volumes of 2 µL, according to the different treatment groups. Plates were kept for 72 h, at 37 °C and 5% CO2. The medium was discarded and the wells were washed twice with PBS. Next, a Giemsa staining was performed in situ. It consisted of adding 200 µL of methanol/well, incubating for 5 min, discarding the fixative, and letting it dry at room temperature. Later, the Giemsa solution (10% in PBS w/v, 200 µL/well) was added, incubated for 10 min, and washed with PBS, allowing it to dry. Finally, the bottom of the plates was detached by percussion and the circular bottoms (wells) were fixed to slides with Permount synthetic resin, for later evaluation (Alcazar W., manuscript in preparation). Cell counting was performed with a 100× immersion objective. A minimum of 200 random macrophages were examined. The percentage of infected macrophages (% infection) and the average number of amastigotes present in infected macrophages (amastigotes) were determined. […] The infection rate represents the number of intracellular amastigotes per 100 macrophages evaluated. Additionally, the GI50 for the decrease in the infection rate was calculated. At least three independent experiments were performed. The effect of amphotericin-B (AmB) [Sigma-Aldrich, (St. Louis, MO, USA)] was included as positive control of the assay.
compound,measurement,setting,value
C=C(C)C1CCC2(C=NO)CCC3(C)C(CCC4C5(C)CCC(=NO)C(C)(C)C5CCC43C)C12 (stereo not shown) [Compound 18],SI (CC50/GI50) VE98MR,"J774.1 CC50 / intracellular amastigote GI50, Table 2",27.32
same,GI50,"VE98MR intracellular amastigotes, read-out: GI50 (µM) Experiment 1 Regresion",0.65 µM
same,GI50,"VE98MR intracellular amastigotes, read-out: GI50 (µM) Experiment 2 Regresion",1.09 µM
same,GI50,"VE98MR intracellular amastigotes, read-out: GI50 (µM) Experiment 3 Regresion",0.89 µM
same,Regresion (GraphPad 6) of %Control vs dose (50% inhibitory concentration),Exp1,0.65 µM
same,Regresion (GraphPad 6) of %Control vs dose (50% inhibitory concentration),Exp2,1.09 µM
same,Regresion (GraphPad 6) of %Control vs dose (50% inhibitory concentration),Exp3,0.89 µM
same,Growth (%) Exp1 %Control,"dose 0.10 µM, Exp1",72.90%
same,Growth (%) Exp1 A/100MØ,"dose 0.10 µM, Exp1",117.33
same,Growth (%) Exp1 A/MØ,"dose 0.10 µM, Exp1",2.20
same,Growth (%) Exp1 Infección,"dose 0.10 µM, Exp1",53.33%
same,Growth (%) Exp2 %Control,"dose 0.10 µM, Exp2",77.33%
same,Growth (%) Exp2 A/100MØ,"dose 0.10 µM, Exp2",159.61
same,Growth (%) Exp2 A/MØ,"dose 0.10 µM, Exp2",2.67
same,Growth (%) Exp2 Infección,"dose 0.10 µM, Exp2",59.78%
same,Growth (%) Exp3 %Control,"dose 0.10 µM, Exp3",82.84%
same,Growth (%) Exp3 A/100MØ,"dose 0.10 µM, Exp3",205.27
same,Growth (%) Exp3 A/MØ,"dose 0.10 µM, Exp3",3.68
same,Growth (%) Exp3 Infección,"dose 0.10 µM, Exp3",55.78%
same,Average A/100MØ,dose 0.10 µM,160.74
same,Growth (%) Exp1 %Control,"dose 0.50 µM, Exp1",57.32%
same,Growth (%) Exp1 A/100MØ,"dose 0.50 µM, Exp1",92.25
same,Growth (%) Exp1 A/MØ,"dose 0.50 µM, Exp1",2.05
same,Growth (%) Exp1 Infección,"dose 0.50 µM, Exp1",45.00%
same,Growth (%) Exp2 %Control,"dose 0.50 µM, Exp2",61.05%
same,Growth (%) Exp2 A/100MØ,"dose 0.50 µM, Exp2",125.99
same,Growth (%) Exp2 A/MØ,"dose 0.50 µM, Exp2",2.20
same,Growth (%) Exp2 Infección,"dose 0.50 µM, Exp2",57.27%
same,Growth (%) Exp3 %Control,"dose 0.50 µM, Exp3",73.43%
same,Growth (%) Exp3 A/100MØ,"dose 0.50 µM, Exp3",181.96
same,Growth (%) Exp3 A/MØ,"dose 0.50 µM, Exp3",3.24
same,Growth (%) Exp3 Infección,"dose 0.50 µM, Exp3",56.16%
same,Average A/100MØ,dose 0.50 µM,133.40
same,Growth (%) Exp1 %Control,"dose 1.00 µM, Exp1",48.73%
same,Growth (%) Exp1 A/100MØ,"dose 1.00 µM, Exp1",78.42
same,Growth (%) Exp1 A/MØ,"dose 1.00 µM, Exp1",2.26
same,Growth (%) Exp1 Infección,"dose 1.00 µM, Exp1",34.70%
same,Growth (%) Exp2 %Control,"dose 1.00 µM, Exp2",59.91%
same,Growth (%) Exp2 A/100MØ,"dose 1.00 µM, Exp2",123.65
same,Growth (%) Exp2 A/MØ,"dose 1.00 µM, Exp2",2.80
same,Growth (%) Exp2 Infección,"dose 1.00 µM, Exp2",44.16%
same,Growth (%) Exp3 %Control,"dose 1.00 µM, Exp3",42.96%
same,Growth (%) Exp3 A/100MØ,"dose 1.00 µM, Exp3",106.46
same,Growth (%) Exp3 A/MØ,"dose 1.00 µM, Exp3",2.36
same,Growth (%) Exp3 Infección,"dose 1.00 µM, Exp3",45.11%
same,Average A/100MØ,dose 1.00 µM,102.84
same,Growth (%) Exp1 %Control,"dose 5.00 µM, Exp1",16.08%
same,Growth (%) Exp1 A/100MØ,"dose 5.00 µM, Exp1",25.87
same,Growth (%) Exp1 A/MØ,"dose 5.00 µM, Exp1",1.60
same,Growth (%) Exp1 Infección,"dose 5.00 µM, Exp1",16.17%
same,Growth (%) Exp2 %Control,"dose 5.00 µM, Exp2",28.34%
same,Growth (%) Exp2 A/100MØ,"dose 5.00 µM, Exp2",58.49
same,Growth (%) Exp2 A/MØ,"dose 5.00 µM, Exp2",2.35
same,Growth (%) Exp2 Infección,"dose 5.00 µM, Exp2",24.89%
same,Growth (%) Exp3 %Control,"dose 5.00 µM, Exp3",8.53%
same,Growth (%) Exp3 A/100MØ,"dose 5.00 µM, Exp3",21.14
same,Growth (%) Exp3 A/MØ,"dose 5.00 µM, Exp3",1.13
same,Growth (%) Exp3 Infección,"dose 5.00 µM, Exp3",18.71%
same,Average A/100MØ,dose 5.00 µM,35.17
same,Growth (%) Exp1 %Control,"dose 10.00 µM, Exp1",3.99%
same,Growth (%) Exp1 A/100MØ,"dose 10.00 µM, Exp1",6.42
same,Growth (%) Exp1 A/MØ,"dose 10.00 µM, Exp1",1.33
same,Growth (%) Exp1 Infección,"dose 10.00 µM, Exp1",4.83%
same,Growth (%) Exp2 %Control,"dose 10.00 µM, Exp2",9.85%
same,Growth (%) Exp2 A/100MØ,"dose 10.00 µM, Exp2",20.33
same,Growth (%) Exp2 A/MØ,"dose 10.00 µM, Exp2",1.50
same,Growth (%) Exp2 Infección,"dose 10.00 µM, Exp2",13.55%
same,Growth (%) Exp3 %Control,"dose 10.00 µM, Exp3",11.25%
same,Growth (%) Exp3 A/100MØ,"dose 10.00 µM, Exp3",27.88
same,Growth (%) Exp3 A/MØ,"dose 10.00 µM, Exp3",1.35
same,Growth (%) Exp3 Infección,"dose 10.00 µM, Exp3",20.65%
same,Average A/100MØ,dose 10.00 µM,18.21
same,GI50,"intracellular amastigotes, Supplementary Materials II, read-out: GI50 (µM) VE98MR, mean of three experiments",0.877 µM and 0.88 µM
